Experimental data taken from patent US20150305334A1, “USE OF SUBSTITUTED 1-(ARYL ETHYNYL)-, 1-(HETEROARYL ETHYNYL)-, 1-(HETEROCYCLYL ETHYNYL)- AND 1-(CYCLOALKENYL ETHYNYL)-CYCLOHEXANOLS AS ACTIVE AGENTS AGAINST ABIOTIC PLANT STRESS” (BAYER CROPSCIENCE AG, priority 2012, published 2015).

Experiments:
Type in all cases: in vivo
Triticum aestivum = test: Drought stress test on greenhouse crop plants, spray application, efficacy vs untreated stressed control (TRZAS); settings: dosage 25 g/ha
Protocol: (§1) Seeds of monocotyledonous and dicotyledonous crop plants were laid out in sandy loam in wood-fiber pots, covered with soil or sand and cultivated in a greenhouse under good growth conditions. The test plants were treated at the early leaf stage (BBCH10-BBCH13). To assure uniform water supply before commencement of stress, the potted plants were supplied with water by dam irrigation prior to substance application. The compounds according to the invention, formulated in the form of wettable powders (WP), were sprayed onto the green parts of the plants as an aqueous suspension at an equivalent water application rate of 600 l/ha with addition of 0.2% wetting agent (e.g. agrotin). Substance application was followed immediately by stress treatment of the plants. For this purpose, the pots were transferred into plastic inserts in order to prevent them from subsequently drying out too quickly. […] After the recovery phase had ended, the intensities of damage were analyzed in visual comparison to untreated, unstressed controls of the same age. The intensity of damage was first recorded as a percentage (100%=plants have died, 0%=like control plants). […] EF: efficacy (%) DVus: damage value of the untreated, stressed control DVts: damage value of the plants treated with test compound In each trial, 3 pots per crop and dosage were treated and evaluated; the resulting efficacies are thus averages. […]

Zea mays = test: Drought stress test on greenhouse crop plants, spray application, efficacy vs untreated stressed control (ZEAMX); settings: dosage 25 g/ha
Protocol: as §1

Brassica napus = test: Drought stress test on greenhouse crop plants, spray application, efficacy vs untreated stressed control (BRSNS); settings: dosage 250 g/ha
Protocol: as §1

Row | SMILES | EF (TRZAS) (Triticum aestivum) [%] | EF (ZEAMX) (Zea mays) [%] | EF (BRSNS) (Brassica napus) [%]
1 | COC(=O)c1ccccc1C#CC1(O)C(C)CCCC1(C)C (centres unmarked) [I.1-116, Methyl 2-[(1-hydroxy-2,2,6-trimethylcyclohexyl)ethynyl]benzoate] | >5 | >5 | >5
2 | CC1CCCC(C)(C)C1(O)C#Cc1ccccc1C(=O)O (centres unmarked) [I.1-107, 2-[(1-Hydroxy-2,2,6-trimethylcyclohexyl)ethynyl]benzoic acid] |  |  | >5
3 | COC(=O)c1ccccc1C#CC1(O)C(C)CCCC1C (centres unmarked) [I.13-116, Methyl 2-[(1-hydroxy-2,6-dimethylcyclohexyl)ethynyl]benzoate] |  | >5 | 
